From article PMC11137182, “Selective and brain-penetrant ACSS2 inhibitors target breast cancer brain metastatic cells” (Frontiers in Pharmacology, 2024)

How the values were obtained:
[1] = tested on: brain slices not containing tumors; assay: MTS cell viability of brain slices without tumor; set-up: species or system mice; conditions: 100 μM, day 6, MTS assay
Procedure: (§1) Ex vivo brain slice tumor model was performed as previously described ([Ciraku et al., 2021]). Briefly, Nu/Nu athymic 4–6 week old mice Charles River Laboratories (Wilmington, MA, United States) were immobilized using the Just for Mice Stereotaxic Frame (Harvard Apparatus, Holliston, MA, United States) and injected intracranially with 5uL of 20,000 cells/uL solution of luciferase tagged MDA-MB-231BR or 4T1BR cells. Tumor growth was monitored via bioluminescence imaging on the IVIS system (Perkin Elmer, Waltman, MA, United States). Organotypic hippocampal cultures were prepared as described previously ([Ciraku et al., 2021]). Briefly, adult mice (4–6 weeks) or mice after 12 days following intracranial injection were decapitated and their brains rapidly removed into ice-cold (4°C) sucrose-aCSF composed of the following (in mM): 280 sucrose, 5 KCl, 2 MgCl2, 1 CaCl2, 20 glucose, 10 HEPES, 5 Na^+-ascorbate, 3 thiourea, 2 Na^+-pyruvate; pH = 7.3. […] Tumor growth was monitored via bioluminescence imaging on the IVIS 200 system (Perkin Elmer), and results were analyzed using Living Image software (Caliper Life Sciences, Waltham, MA, United StatesUnited States). […] Tissues were incubated at 37 ℃ , 5% CO2 for 4 h, and absorbance at 490 nm was measured with a Tecan Spark Microplate reader.

[2] = tested on: MDA-MB-231BR tumor bearing brain slices; assay: Ex vivo tumor-brain slice model with irradiation; set-up: species or system nu/nu mice; conditions: 6 days
Procedure: as §1

[3] = BBB permeability in vivo (LC-MS, brain over blood); set-up: species or system BalbC mice; conditions: mice, 50 mg/kg intraperitoneal, 30 min (AD-5584) or 1 h (AD-8007, VY-3-135)
Procedure: Human ACSS2 inhibitors were prepared in 10 mg/mL saline solution. BalbC 4–6 week-old mice were weighed and injected with 50 mg/kg or 100 mg/kg of drug saline solution via intraperitoneal injection. After 30 min or 60 min, mice treated with AD-5584 or AD-8007 and VY-3-135 were placed in isoflurane, and blood was extracted and perfused via intracardiac injection. Following perfusion, mice were decapitated, and their brains were rapidly removed into ice-cold PBS. For analysis of blood samples, 200 µL of blood was transferred and allowed to clot for 15 min at room temperature. Samples were precipitated at 16000xg for 1 min, and 50 µL of serum was transferred. To serum, 200 µL of methanol was added, and samples were centrifuged at 16000 g for 5 min. The supernatant was analyzed by LCMS. For analysis of brain samples, brains were homogenized via bead beating using four 2.3 mm stainless steel beads in 1 mL of MeOH and 0.5 mL of H2O. After centrifugation for 15 min at 3000xg, the supernatant was analyzed by LCMS. LCMS was performed on an Acquity I-Class UPLC system coupled to a Synapt G2Si HDMS mass spectrometer in positive ion mode with a heated electrospray ionization (ESI) source in a Z-spray configuration. […] Data was analyzed using Waters MassLynx and Waters Unifi. Calibration curves of authentic standards were used for quantification.

[4] = Human liver microsome stability; conditions: human, liver microsomes

Q: Which “cell viability of brain slices without tumor” value [1] does the source give for N[C@H](C(=O)N1CCCC(c2ccccc2)(c2ccccc2)C1)C1CC1 [AD-8007] here?
A: Its value is “did not alter cell viability”.

Q: What about the “preformed BCBM tumors ex vivo, combination with radiation” value ([2]; 20 μM plus one dose of 6 Gy) of the same compound?
A: Its value is “significantly reduced preformed BCBM tumors”.

Q: And the “BCBM cell growth ex vivo, drug alone” value ([2]; suboptimal dose 20 µM, no irradiation)?
A: Its value is “little effect on BCBM cell growth”.

Q: What about the “level of drug in the brain over blood” value [3] of the same compound?
A: Its value is “detected at significantly higher levels in the brain compared to VY-3-135”.

Q: And the CLint scaled [4]?
A: Its CLint scaled is less than 8.6 mL/min/kg.

Q: What about the microsomal CLint [4] of the same compound?
A: Its microsomal CLint is less than 9.6 µL/min/mg.

Q: What about the half-life ([4]; Human Liver Microsome Stability T1/2, human liver microsomes) of the same compound?
A: Its half-life is greater than 2.42 h.
